Publication PMC12498190, “A Photocaged N‐Phosphonopiperidinone as a Selective Photo‐Cleavable DPP8/9 Inhibitor” (Chembiochem, 2025)

Experiments:
HEK293 cells = test: Cell viability assay (MTT); assay type: cell-based, human; conditions: 24 h; for Viability of cells (in words): after 5 min green light irradiation
Description: Figure 2 Competitive ABPP with photo‐cleavable inhibitor 5 in HEK293 cells. A) Schematic overview of a competitive ABPP experiment. A proteome is pre‐incubated with a competitor, followed by a labeling reaction with an activity‐based probe (ABP). In the case of a photocaged inhibitor, the active compound can be released via irradiation. Target proteins of the competitor cannot be bound by the ABP, resulting in an absence of the respective protein band in‐gel analysis. Created in BioRender. Najdzion, M. (2025) https://BioRender.com/84zn8cb B) Gel‐based competitive ABPP experiment in HEK293 cell lysates with the broadband serine hydrolase ABP ≡FP or the DPP8/9‐directed ABP 2 and the photocaged inhibitor 5, at the indicated concentrations, after or without prior irradiation with green light for 5 min. The corresponding pre‐incubation time for 5 was 30 min. C) Corresponding in situ competitive ABPP experiment in HEK293 cell culture, again with 10 µM 2 for 1 h. Labeling was competed by pre‐incubation with 20 µM 5 for 1 h, followed by an activation of the photocaged inhibitor by irradiation for 5 min with a green LED lamp, if applicable. D) Green light treatment has no cytotoxic effect. HEK293 cells were irradiated with a green LED lamp in the presence of 0.5% DMSO for 5 min (‘light’), and cell viability was measured after 24 h. […] Data was normalized to the non‐irradiated control (‘dark’). E) Green light treatment leads to the release of the active DPP8/9 inhibitor. HEK293 cells were incubated with compound 1 or 5 for 24 h. For both compounds, cell viability was measured under ‘dark’ (not irradiated) and ‘light’ (irradiated for 5 min with a green LED lamp after the addition of the inhibitor) conditions. […] Data was normalized to the non‐irradiated DMSO control.
In order to validate target engagement in living cells and potential cytotoxic effects of green light treatment, we determined cell viability of HEK293 cells after 24 h inhibitor treatment with 5 with or without 5 min green light irradiation, as the application of DPP8/9 inhibitors at high concentrations and thus elimination of any residual DPP8/9 activity results in cytotoxicity.^[ [38], [39] ^– [40] ^] As a control, effects of green light treatment on cell viability were examined in the absence of any inhibitor after 24 h, again with or without 5 min irradiation (Figure 2D). […] Of note, no additional effect of the photocage on cell viability was observed. In summary, our cell viability studies confirm target engagement in live cells exclusively after photorelease, thereby again confirming the suitability of the photocaged DPP8/9 inhibitor 5 as a cell biological tool compound.
To investigate the cytotoxicity of compounds, 2 × 10^4 HEK293 cells were cultured in DMEM (+/+) on 96‐well flat‐bottom cell culture plates (Sarstedt, Germany) as described above. After 24 h, cells were treated with indicated concentrations of compounds (final DMSO concentration: 0.5%) and, if applicable, irradiated with a green LED lamp (λ = 520−530 nm; Eurolite, Germany) for 5 min. Control cells were treated with DMSO. Cell viability was measured 24 h after compound treatment. To this end, 25 µL Thiazolyl Blue Tetrazolium Bromide (MTT) solution (5 mg mL^−1 MTT (Sigma Aldrich, USA) in PBS (Gibco, USA)) was added to each well directly into the medium. After 3 h of incubation at 37 °C, the medium was removed and formazan crystals were dissolved by adding 150 µL DMSO (1 h, 37 °C, gentle shaking), followed by an absorbance measurement at 570 and 630 nm as a reference using a Tecan Spark 10 M multimode microplate reader (Tecan Group Ltd., Switzerland). Each experiment was performed with five replicates. Relative cell viability was expressed as a percentage relative to the DMSO‐treated control cells.

DPP9 = DPP9 (Homo sapiens, UniProt Q86TI2); test: In situ competitive ABPP in HEK293 cell culture, 100 kDa band; assay type: cell-based; set-up: endogenous in cells; host or cells: HEK293 (Cytion, Germany, 300192); conditions: pre-incubation 1 h with 20 µM or 10 µM (method), 10 µM 2 for 1 h, light 5 min
Description: Figure 2 Competitive ABPP with photo‐cleavable inhibitor 5 in HEK293 cells. A) Schematic overview of a competitive ABPP experiment. A proteome is pre‐incubated with a competitor, followed by a labeling reaction with an activity‐based probe (ABP). In the case of a photocaged inhibitor, the active compound can be released via irradiation. Target proteins of the competitor cannot be bound by the ABP, resulting in an absence of the respective protein band in‐gel analysis. Created in BioRender. Najdzion, M. (2025) https://BioRender.com/84zn8cb B) Gel‐based competitive ABPP experiment in HEK293 cell lysates with the broadband serine hydrolase ABP ≡FP or the DPP8/9‐directed ABP 2 and the photocaged inhibitor 5, at the indicated concentrations, after or without prior irradiation with green light for 5 min. The corresponding pre‐incubation time for 5 was 30 min. C) Corresponding in situ competitive ABPP experiment in HEK293 cell culture, again with 10 µM 2 for 1 h. […] HEK293 cells were irradiated with a green LED lamp in the presence of 0.5% DMSO for 5 min (‘light’), and cell viability was measured after 24 h. […] For both compounds, cell viability was measured under ‘dark’ (not irradiated) and ‘light’ (irradiated for 5 min with a green LED lamp after the addition of the inhibitor) conditions. […]

Chain of DPP9 (Q86TI2 whole entry): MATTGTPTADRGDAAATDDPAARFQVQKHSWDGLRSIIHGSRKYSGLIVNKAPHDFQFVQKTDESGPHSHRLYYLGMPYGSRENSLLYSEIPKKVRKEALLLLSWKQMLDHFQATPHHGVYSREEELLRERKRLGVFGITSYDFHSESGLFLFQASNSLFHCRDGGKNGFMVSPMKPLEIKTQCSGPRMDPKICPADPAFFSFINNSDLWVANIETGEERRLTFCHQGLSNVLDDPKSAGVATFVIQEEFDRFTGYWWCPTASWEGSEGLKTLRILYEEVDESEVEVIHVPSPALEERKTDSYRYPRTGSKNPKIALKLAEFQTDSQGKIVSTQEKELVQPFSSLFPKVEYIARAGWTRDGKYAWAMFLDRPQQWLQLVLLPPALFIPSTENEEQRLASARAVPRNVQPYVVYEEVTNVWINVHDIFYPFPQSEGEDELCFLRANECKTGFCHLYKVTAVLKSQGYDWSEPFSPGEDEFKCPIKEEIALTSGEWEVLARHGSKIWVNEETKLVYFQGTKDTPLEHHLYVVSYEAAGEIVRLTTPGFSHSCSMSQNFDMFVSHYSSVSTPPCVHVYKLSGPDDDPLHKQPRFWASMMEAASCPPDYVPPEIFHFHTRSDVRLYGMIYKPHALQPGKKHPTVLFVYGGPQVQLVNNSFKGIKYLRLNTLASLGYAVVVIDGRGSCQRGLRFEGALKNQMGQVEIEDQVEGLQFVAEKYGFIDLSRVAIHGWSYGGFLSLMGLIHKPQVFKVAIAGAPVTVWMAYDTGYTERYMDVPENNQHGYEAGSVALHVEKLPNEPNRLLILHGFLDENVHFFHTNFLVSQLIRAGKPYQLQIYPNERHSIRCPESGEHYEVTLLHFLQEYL

CCCCCc1ccc(SCCP(=O)(OCC)N2CCC[C@H](NC(=O)OCC3=C4C(C)=CC(C)=[N+]4[B-](C)(C)n4c(C)cc(C)c43)C2=O)cc1 (stereo partly shown) [Compound 5]
Viability of cells (in words) (HEK293 cells; 25 µM): significantly reduced
Viability of cells (in words) (HEK293 cells; 50 µM): significantly reduced
Cytotoxicity (in words) (HEK293 cells; dark, up to highest concentrations used): no cytotoxicity
Competition of DPP9 labeling in live cells (in words) (DPP9): completely inhibited
